Results reported in PubChem BioAssay AID328 (DTP/NCI, 2004).
Several values for one entry are separate records, joined by “and”; a condition that tells them apart may be missing. Equal entries are not always repeated. Toxic doses and inconclusive results are not listed.

System: BDF1 mice, P388 leukemia ip, median survival T/C
Assay: NCI In Vivo Anticancer Drug Screen. Data for tumor model P388 Leukemia (intraperitoneal) in B6D2F1 (BDF1) mice
Conditions: endpoint: median survival time, higher = longer survival
Summary of the method: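 Reported as T/C, where T is the survival measurement in dosed animals and C the same measurement in vehicle controls.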

[1] = dose: 100.0 mg/kg/injection, schedule: Q01DX001 (ip), vehicle: Klucel (hydroxypropylcellulose) (HPC)
[2] = dose: 200.0 mg/kg/injection, schedule: Q01DX001 (ip), vehicle: Klucel (hydroxypropylcellulose) (HPC)
[3] = dose: 400.0 mg/kg/injection, schedule: Q01DX001 (ip), vehicle: Klucel (hydroxypropylcellulose) (HPC)
[4] = dose: 100.0 mg/kg/injection, schedule: Q04DX003 (ip), vehicle: saline with Tween-80
[5] = dose: 200.0 mg/kg/injection, schedule: Q04DX003 (ip), vehicle: saline with Tween-80
[6] = dose: 400.0 mg/kg/injection, schedule: Q04DX003 (ip), vehicle: saline with Tween-80
[7] = dose: 6.25 mg/kg/injection, schedule: Q01DX009 (ip), vehicle: saline
[8] = dose: 12.5 mg/kg/injection, schedule: Q01DX009 (ip), vehicle: saline
[9] = dose: 25.0 mg/kg/injection, schedule: Q04DX003 (ip), vehicle: saline with Tween-80
[10] = dose: 50.0 mg/kg/injection, schedule: Q01DX009 (ip), vehicle: saline with Tween-80
[11] = dose: 100.0 mg/kg/injection, schedule: Q01DX009 (ip), vehicle: saline with Tween-80
[12] = dose: 200.0 mg/kg/injection, schedule: Q01DX009 (ip), vehicle: saline with Tween-80
[13] = dose: 400.0 mg/kg/injection, schedule: Q01DX009 (ip), vehicle: saline with Tween-80
[14] = dose: 50.0 mg/kg/injection, schedule: Q01DX009 (ip), vehicle: saline

In the case of `C(=C/c1nc2ccccc2o1)/c1ccc2c(c1)OCO2`, the T/C (dose: 50.0 mg/kg/injection, schedule: Q01DX011 (ip), vehicle: Klucel (hydroxypropylcellulose) (HPC)) is reported as 102 % of control, the T/C [1] is reported as 100 % of control and the T/C (dose: 100.0 mg/kg/injection, schedule: Q01DX011 (ip), vehicle: Klucel (hydroxypropylcellulose) (HPC)) is reported as 99 % of control. The T/C [2] was 86 % of control, the T/C (dose: 200.0 mg/kg/injection, schedule: Q01DX011 (ip), vehicle: Klucel (hydroxypropylcellulose) (HPC)) was 100 % of control and the T/C [3] was 94 % of control.
For `c1ccc2nc(-c3cc4ccccc4s3)ccc2c1`, the T/C (dose: 100.0 mg/kg/injection, schedule: Q04DX003 (ip), vehicle: saline sonified) was 104 % of control, the T/C (dose: 200.0 mg/kg/injection, schedule: Q04DX003 (ip), vehicle: saline sonified) was 95 % of control and the T/C (dose: 400.0 mg/kg/injection, schedule: Q04DX003 (ip), vehicle: saline sonified) was 118 % of control.
With `Cc1ccc(S(=O)(=O)CC([Se]C#N)c2ccccc2)cc1` (stereo not given) the T/C [4] was 105 % of control, the T/C [5] was 92 % of control and the T/C [6] was 89 % of control.
`CC(=N/NC(=S)NCCN1CCCCC1)/C(C)=N\NC(=S)NCCN1CCCCC1` was tested, and the T/C (dose: 0.78 mg/kg/injection, schedule: Q01DX009 (ip), vehicle: saline) was 90 % of control, the T/C (dose: 1.56 mg/kg/injection, schedule: Q01DX009 (ip), vehicle: saline) was 98 % of control and the T/C (dose: 3.13 mg/kg/injection, schedule: Q01DX009 (ip), vehicle: saline) was 98 % of control and 121 % of control. For the same compound, the T/C [7] was 105 % of control and 109 % of control and the T/C [8] was 103 % of control.
With `Cc1ccc(NCC(O)CN2CCN(CC(O)CNc3ccc(C)cc3)CC2)cc1` (stereo not given) the T/C [1] was 104 % of control, the T/C [2] was 100 % of control and the T/C [3] was 86 % of control.
With `C1CCCC(NC2=NCCO2)CC1` the T/C (dose: 6.25 mg/kg/injection, schedule: Q04DX003 (ip), vehicle: saline with Tween-80) was 100 % of control, the T/C (dose: 12.5 mg/kg/injection, schedule: Q04DX003 (ip), vehicle: saline with Tween-80) was 100 % of control and the T/C [9] was 104 % of control.
For `O=[N+]([O-])c1cc([N+](=O)[O-])c(Nc2cccc3ccccc23)c([N+](=O)[O-])c1`, the T/C (dose: 50.0 mg/kg/injection, schedule: Q01DX009 (ip), vehicle: Klucel (hydroxypropylcellulose) (HPC)) was 100 % of control, the T/C (dose: 100.0 mg/kg/injection, schedule: Q01DX009 (ip), vehicle: Klucel (hydroxypropylcellulose) (HPC)) was 100 % of control and the T/C (dose: 200.0 mg/kg/injection, schedule: Q01DX009 (ip), vehicle: Klucel (hydroxypropylcellulose) (HPC)) was 103 % of control.
With `OC/C(=N/Nc1ccc2ccccc2n1)c1ccccc1` the T/C [10] was 114 % of control, the T/C [11] was 117 % of control and the T/C [4] was 94 % of control. The T/C [12] was 115 % of control, the T/C [5] was 102 % of control and the T/C [13] was 88 % of control. For the same compound, the T/C [6] was 101 % of control.
With `Clc1ccc2c(c1)Nc1cc(Cl)ccc1C=C2` the T/C (dose: 75.0 mg/kg/injection, schedule: Q01DX001 (ip), vehicle: saline with Tween-80) was 91 % of control, the T/C (dose: 150.0 mg/kg/injection, schedule: Q01DX001 (ip), vehicle: saline with Tween-80) was 100 % of control and the T/C (dose: 300.0 mg/kg/injection, schedule: Q01DX001 (ip), vehicle: saline with Tween-80) was 100 % of control.
In the case of `NC(=NCCCC(NCc1ccccc1)C(=O)O)N[N+](=O)[O-]` (stereo not given), the T/C (dose: 50.0 mg/kg/injection, schedule: Q04DX003 (ip), vehicle: saline + alcohol) is reported as 103 % of control, the T/C (dose: 100.0 mg/kg/injection, schedule: Q04DX003 (ip), vehicle: saline + alcohol) is reported as 99 % of control and the T/C (dose: 200.0 mg/kg/injection, schedule: Q04DX003 (ip), vehicle: saline + alcohol) is reported as 94 % of control. The T/C (dose: 400.0 mg/kg/injection, schedule: Q04DX003 (ip), vehicle: saline + alcohol) was 105 % of control.
In the case of `CN1CCc2cc3c4cc2C1Cc1ccc(O)c(c1)Oc1ccc(cc1)CC1c2c(cc(O)c(c2O4)O3)CCN1C` (stereo not given), the T/C (dose: 7.5 mg/kg/injection, schedule: Q01DX009 (ip), vehicle: saline with Tween-80) is reported as 90 % of control.
`CC(C)=CCCC(C)=C(C#N)C#N` was tested, and the T/C [9] was 107 % of control, the T/C (dose: 50.0 mg/kg/injection, schedule: Q04DX003 (ip), vehicle: saline with Tween-80) was 105 % of control and the T/C [4] was 107 % of control.
In the case of `CCCOC(=O)C(F)C(Br)C(=O)OCCC` (stereo not given), the T/C [10] is reported as 89 % of control, the T/C [11] is reported as 99 % of control and the T/C [12] is reported as 118 % of control.
With `CN1c2ccc(Cl)cc2C(=O)NC1c1ccc([N+](=O)[O-])s1` (stereo not given) the T/C [10] was 98 % of control and 110 % of control, the T/C [11] was 104 % of control and 113 % of control and the T/C [12] was 112 % of control.
For `CN(C)Cc1ccc(-c2cc3onc(-c4ccccc4)c3c(=O)n2C)cc1`, the T/C (dose: 50.0 mg/kg/injection, schedule: Q01DX005 (ip), vehicle: saline with Tween-80) was 108 % of control, the T/C (dose: 100.0 mg/kg/injection, schedule: Q01DX005 (ip), vehicle: saline with Tween-80) was 94 % of control and the T/C (dose: 200.0 mg/kg/injection, schedule: Q01DX005 (ip), vehicle: saline with Tween-80) was 97 % of control.
`O=C(Nc1ccc(Nc2ccncc2)cc1)c1ccc(Nc2ccnc3ccc([N+](=O)[O-])cc23)cc1[N+](=O)[O-]` was tested, and the T/C [8] was 93 % of control, the T/C [14] was 88 % of control and the T/C (dose: 50.0 mg/kg/injection, schedule: Q04DX003 (ip), vehicle: saline) was 111 % of control. The T/C (dose: 100.0 mg/kg/injection, schedule: Q01DX009 (ip), vehicle: saline) was 91 % of control, the T/C (dose: 100.0 mg/kg/injection, schedule: Q04DX003 (ip), vehicle: saline) was 105 % of control and the T/C (dose: 200.0 mg/kg/injection, schedule: Q01DX009 (ip), vehicle: saline) was 98 % of control. The T/C (dose: 200.0 mg/kg/injection, schedule: Q04DX003 (ip), vehicle: saline) was 93 % of control, the T/C (dose: 400.0 mg/kg/injection, schedule: Q01DX009 (ip), vehicle: saline) was 119 % of control and the T/C (dose: 400.0 mg/kg/injection, schedule: Q04DX003 (ip), vehicle: saline) was 88 % of control.
`CN(C)c1ccc(C(/C=N\O)(c2ccc(N(C)C)cc2)c2ccc(N(C)C)cc2)cc1` was tested, and the T/C (dose: 100.0 mg/kg/injection, schedule: Q04DX003 (ip), vehicle: Klucel (hydroxypropylcellulose) (HPC)) was 104 % of control, the T/C (dose: 200.0 mg/kg/injection, schedule: Q04DX003 (ip), vehicle: Klucel (hydroxypropylcellulose) (HPC)) was 100 % of control and the T/C (dose: 400.0 mg/kg/injection, schedule: Q04DX003 (ip), vehicle: Klucel (hydroxypropylcellulose) (HPC)) was 109 % of control.
In the case of `O=C1c2ccccc2C(=O)c2c(O)c3c(c(O)c21)CC=CC3`, the T/C (dose: 3.12 mg/kg/injection, schedule: Q01DX009 (ip), vehicle: saline with Tween-80) is reported as 107 % of control, the T/C (dose: 6.25 mg/kg/injection, schedule: Q01DX009 (ip), vehicle: saline with Tween-80) is reported as 112 % of control and the T/C (dose: 12.5 mg/kg/injection, schedule: Q01DX009 (ip), vehicle: saline with Tween-80) is reported as 104 % of control. For the same compound, the T/C (dose: 25.0 mg/kg/injection, schedule: Q01DX009 (ip), vehicle: saline with Tween-80) was 98 % of control and the T/C [10] was 98 % of control.
With `COc1cc(C(=O)NCC2(C)OC3(OC(=O)C2O)C(=O)N/C(=C(\C=O)C(C)=O)OC3C(O)C2CN2C(C)=O)c2cccc(C)c2c1` (stereo not given) the T/C (dose: 0.05 mg/kg/injection, schedule: Q01DX010 (ip), vehicle: alkali diluted with saline) was 245 % of control, the T/C (dose: 0.1 mg/kg/injection, schedule: Q01DX010 (ip), vehicle: alkali diluted with saline) was 300 % of control and the T/C (dose: 12.5 micrograms/kg/injection, schedule: Q01DX010 (ip), vehicle: other) was 180 % of control. For the same compound, the T/C (dose: 25.0 micrograms/kg/injection, schedule: Q01DX010 (ip), vehicle: other) was 155 % of control and the T/C (dose: 50.0 micrograms/kg/injection, schedule: Q01DX010 (ip), vehicle: other) was 195 % of control.
In the case of `CC(C)(C)c1cc2c3c(c1)C(C)(C)OS3(C)(=O)OC2(C)C`, the T/C (dose: 12.5 mg/kg/injection, schedule: Q04DX002 (ip), vehicle: saline with Tween-80) is reported as 93 % of control, the T/C (dose: 25.0 mg/kg/injection, schedule: Q04DX002 (ip), vehicle: saline with Tween-80) is reported as 107 % of control and the T/C (dose: 50.0 mg/kg/injection, schedule: Q04DX002 (ip), vehicle: saline with Tween-80) is reported as 97 % of control and 98 % of control.
With `O=C1OC(c2ccccc2)(c2ccccc2)Cc2ccccc21` the T/C [11] was 105 % of control, the T/C [12] was 105 % of control and the T/C [13] was 100 % of control.
For `CN1CCC(C=C2c3ccccc3Sc3ccccc32)C1` (stereo not given), the T/C [7] was 99 % of control, the T/C [8] was 95 % of control and the T/C (dose: 25.0 mg/kg/injection, schedule: Q01DX009 (ip), vehicle: saline) was 100 % of control. The T/C [14] was 101 % of control.
